Converted amounts (≈) assume the structure as drawn. “And” between values parts separate entries of the source, which are not always exact repeats. Identical values can stand only once. Like-named read-outs stand apart in the source and are kept apart here.
Key:
[1] = system: C. parvum (Bunch Grass Farms Iowa isolate); test: Time-kill curve assay in HCT-8 cells; format: cell-based, Cryptosporidium parvum
Protocol: The invasion assay, DNA replication assay, asexual to sexual stage conversion, and time-kill curve assays were performed using fluorescence microscopy to enumerate parasites and host cell nuclei. Staining protocols are individually described for each assay. Unless noted otherwise, the details of image acquisition were as follows. An inverted Nikon Eclipse Ti2000 microscope with an automated stage and Perfect Focus was used with NIS-Elements Advanced Research software (Nikon, USA, version 4.30.01) to image the wells. The microscope was programmed to focus on the center of each well and then take a 3 × 3 composite image per well using a 20 × (0.45 NA) objective. Images were exported as .tiff files and parasites and host nuclei counted using a custom macro on ImageJ (National Institutes of Health, version 1.52a). Data were analyzed using Microsoft Excel and GraphPad Prism (version 6.01). […] C. parvum Iowa isolate oocysts (Bunch Grass Farms, Deary, ID) were treated to induce excystation and added to >90% confluent HCT-8 cells in 384-well plates. […] The monolayers were then washed, fixed, and stained with Vicia villosa lectin and DAPI at the indicated time points, and imaged as for the C. parvum growth assay. Separate 384-well plates were used for each time point. Parasite numbers were normalized to host cell nucleus numbers and expressed as the percentage of host cells infected. Drug-induced parasite decay was isolated from the reduction in parasites over time that occurs spontaneously in the HCT-8 culture system by expressing the number of parasites as the percentage of the number of parasites present at each time point under control (DMSO-treated) conditions.

[2] = system: C. parvum (University of Arizona Iowa isolate); format: in vivo, C57BL/6 IFN-γ−/− mice
Protocol: Interferon gamma (IFN-γ) knockout mice were used to model acute Cryptosporidium infection. All IFN-γ knockout mouse studies were performed in compliance with animal care guidelines and were approved by the Explora BioLabs (San Diego, CA) Institutional Animal Care and Use Committee. Four-week-old female C57BL/6 IFN-γ^−/− mice with normal flora were purchased from The Jackson laboratory and acclimated for 3 days prior to infection by oral gavage with ∼10^6 C. parvum Iowa isolate oocysts (Sterling Laboratory, University of Arizona) suspended in sterile distilled water. At the indicated times following infection, mice were treated with compound vehicle alone, clofazimine (positive control), or once daily AN7973 at the indicated doses. Fecal parasite shedding was measured by isolating oocysts using sucrose gradient centrifugation. Sheather’s sucrose solution was freshly prepared by dissolving 156.25 g sucrose and 2.5 mL phenol in 100 mL water. Two sucrose solutions were prepared: (A) specific gravity of 1.103 (33% Sheather’s and 0.1% Tween 80 in PBS) and (B) specific gravity of 1.064 (20% Sheather’s and 0.1% Tween 80 in PBS). In a 2 mL microfuge tube, a gradient was prepared by laying 0.75 mL of solution A, then carefully laying 0.75 mL of solution B, slowly as to prevent mixing of the two layers. Fecal pellets were removed from storage, and homogenized by vortexing and pipetting. 0.2 mL fecal homogenate was overlaid on top of gradient in each microfuge tube. Oocysts were floated from feces by centrifugation at 1000 × g for 20 min and collected with a pipet tip from the 1.064/1.103 specific gravity interface between solutions A and B. Oocysts were rinsed once in cold PBS, pelleted by centrifugation at 15,000 × g for 10 min, and resuspended in PBS. Isolated oocysts were then stained with a fluorescein isothiocyanate-conjugated mouse anti-Cryptosporidium antibody (Bio-Rad catalog# 2402-3007 F; 0.25 µg per sample) and quantified using a Guava EasyCyte flow cytometer and CytoSoft data acquisition software (version 5.3; Guava Technologies, Inc.). Oocysts per milliliter of sample were normalized to counts per milligram of feces.

[3] = system: Escherichia coli and Salmonella typhimurium; test: AMES bacterial reverse mutation assay; conditions: five strains with and without S9, up to 5000 µg per plate
Protocol: In vitro safety profiling studies were conducted by Ricerca Biosciences (Taipei, Taiwan) and WuXi AppTec (Suzhou, China). Ricerca performed a Lead Profiling and Adverse Reaction Enzyme panel of 109 off-target enzymes and receptors. This included the hERG K+ ion channel, which is associated with cardiac tachyarrhythmias, and used a radioligand binding competition format with 10 µM test compound for 1 h at 25 °C. For the enzyme and receptor panel, competitive inhibition at 10 µM of test compound was the most common assay format. The AMES bacterial reverse mutation assay detects point mutations in Escherichia coli and Salmonella typhimurium as an indicator of mutagenic activity. Bacterial strains were obtained from Molecular Toxicology (Boone, NC).

[4] = Rat toxicokinetics (TK) study; format: in vivo, Sprague-Dawley male rats; conditions: for AUC / Cmax: po, 80 mg/kg
Protocol: A repeated oral dose toxicity and separate toxicokinetics (TK) study were performed in male rats by WuXi AppTec Company (Suzhou, China). […] All rat studies were performed using ∼8-week-old Sprague-Dawley male rats (Rattus novegicus)/Crl: CD[SD] VAF/Plus weighing between 243.22 and 276.57 g at the start of compound dosing. […] Serum was collected from vehicle-control animals at 1 h and 4 h after dosing on days 1 and 7.

[5] = Liver microsome Clint (human); format: in vitro ADME; conditions: liver microsomes
Solubility PBS pH 7.4 = format: physicochemical; conditions: aqueous buffer
CYP3A4 = CYP3A4 (Homo sapiens, UniProt P08684); test: CYP450 inhibition 3A4; format: in vitro ADME
[6] = male, Sprague-Dawley, rat, serum, rat, 80 mg·kg-1 oral once daily, Day 1
[7] = male, Sprague-Dawley, rat, serum, rat, 80 mg·kg-1 oral once daily, Day 7

Chain of CYP3A4 (P08684 whole entry): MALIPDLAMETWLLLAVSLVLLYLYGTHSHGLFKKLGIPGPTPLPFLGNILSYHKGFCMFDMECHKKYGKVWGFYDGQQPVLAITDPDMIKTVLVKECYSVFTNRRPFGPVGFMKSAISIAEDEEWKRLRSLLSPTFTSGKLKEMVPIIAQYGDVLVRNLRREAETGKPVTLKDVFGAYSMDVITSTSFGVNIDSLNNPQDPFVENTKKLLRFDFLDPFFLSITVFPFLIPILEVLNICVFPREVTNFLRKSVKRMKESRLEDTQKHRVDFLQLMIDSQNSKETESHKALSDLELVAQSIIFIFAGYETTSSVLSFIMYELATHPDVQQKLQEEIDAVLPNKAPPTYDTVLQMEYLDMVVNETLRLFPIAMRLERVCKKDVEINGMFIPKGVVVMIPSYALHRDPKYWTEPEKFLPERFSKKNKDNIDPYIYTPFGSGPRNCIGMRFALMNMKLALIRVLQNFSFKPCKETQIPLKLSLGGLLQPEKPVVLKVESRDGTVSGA

Which concentration giving maximum rate of parasite elimination ([1]; Cryptosporidium parvum, HCT-8, read-out: concentration at which maximum rate of parasite elimination was achieved (∼3 × EC90)) does the source give for `CC1(C)OB(O)c2cc(NC(=O)c3ccc(-n4cccn4)cc3Cl)ccc21` [AN7973] here?
The concentration giving maximum rate of parasite elimination was roughly 630 nM.

And the time-kill curve result ([1]; compound added ~24 h after infection of HCT-8)?
Its time-kill curve result is “appeared to act rapidly and drove progressive elimination of C. parvum”.

And the “% Parasite / host nuclei” value ([1]; compound at 3 x EC90, 0 h exposure)?
Its value is 25.13% and 23.57% and 25.93% and 26.94%.

What about the “% Parasite / host nuclei” value ([1]; compound at 3 x EC90, 6 h exposure) of the same molecule?
Its value is 24.78% and 34.35% and 30.89%.

And the “% Parasite / host nuclei” value ([1]; compound at 3 x EC90, 24 h exposure)?
Its value is 15.27% and 14.74% and 17.96% and 15.11%.

And the “% Parasite / host nuclei” value ([1]; compound at 3 x EC90, 48 h exposure)?
The value was 20.76% and 12.39% and 18.77% and 13.91%.

And the “% Parasite / host nuclei” value ([1]; compound at 3 x EC90, 72 h exposure)?
The value was 10.40% and 6.55% and 11.33% and 7.26%.

What about the “% Parasite / host nuclei” value ([1]; compound at 6 x EC90, 0 h exposure) of the same molecule?
Its value is 26.94% and 25.13% and 23.57% and 25.93%.

And the “% Parasite / host nuclei” value ([1]; compound at 6 x EC90, 6 h exposure)?
Its value is 28.91% and 27.91% and 32.17% and 31.13%.

And the “% Parasite / host nuclei” value ([1]; compound at 6 x EC90, 24 h exposure)?
Its value is 21.47% and 14.00% and 13.65% and 12.46%.

What about the “% Parasite / host nuclei” value ([1]; compound at 6 x EC90, 48 h exposure) of the same molecule?
The value was 10.56% and 11.11% and 14.16% and 9.59%.

What about the “% Parasite / host nuclei” value ([1]; compound at 6 x EC90, 72 h exposure) of the same molecule?
The value was 5.25% and 6.00% and 13.91% and 10.57%.

What about the “% Parasite / host nuclei” value ([1]; compound at 9 x EC90, 0 h exposure) of the same molecule?
Its value is 26.94% and 25.13% and 23.57% and 25.93%.

And the “% Parasite / host nuclei” value ([1]; compound at 9 x EC90, 24 h exposure)?
The value was 14.18% and 12.40% and 14.28% and 11.31%.

What about the “% Parasite / host nuclei” value ([1]; compound at 9 x EC90, 48 h exposure) of the same molecule?
The value was 12.96% and 14.27% and 16.75% and 18.20%.

And the “% Parasite / host nuclei” value ([1]; compound at 12 x EC90, 0 h exposure)?
Its value is 26.94% and 25.13% and 23.57% and 25.93%.

And the “% Parasite / host nuclei” value ([1]; compound at 12 x EC90, 24 h exposure)?
The value was 11.36% and 18.45% and 14.90% and 9.34%.

And the “% Parasite / host nuclei” value ([1]; compound at 12 x EC90, 48 h exposure)?
The value was 10.50% and 12.64% and 5.47% and 10.46%.

What about the “% Parasite / host nuclei” value ([1]; compound at 12 x EC90, 72 h exposure) of the same molecule?
The value was 8.81% and 7.07% and 9.43% and 15.51%.

What about the “% Parasite / host nuclei” value ([1]; compound at EC50, 0 h exposure) of the same molecule?
The value was 26.94% and 25.13% and 23.57% and 25.93%.

And the “% Parasite / host nuclei” value ([1]; compound at EC50, 6 h exposure)?
Its value is 20.18%.

What about the “% Parasite / host nuclei” value ([1]; compound at EC50, 24 h exposure) of the same molecule?
The value was 55.77% and 58.71% and 35.00% and 58.88%.

What about the “% Parasite / host nuclei” value ([1]; compound at EC50, 48 h exposure) of the same molecule?
The value was 63.82% and 58.60% and 55.54% and 55.88%.

What about the “% Parasite / host nuclei” value ([1]; compound at EC50, 72 h exposure) of the same molecule?
Its value is 29.51% and 58.62% and 41.28% and 34.71%.

And the “% Parasite / host nuclei” value ([1]; compound at EC90, 0 h exposure)?
The value was 26.94% and 25.13% and 23.57% and 25.93%.

What about the “% Parasite / host nuclei” value ([1]; compound at EC90, 24 h exposure) of the same molecule?
Its value is 31.22% and 39.05% and 28.47% and 33.72%.

And the “% Parasite / host nuclei” value ([1]; compound at EC90, 48 h exposure)?
The value was 43.81% and 37.66% and 41.76% and 32.99%.

What about the “% Parasite / host nuclei” value ([1]; compound at EC90, 72 h exposure) of the same molecule?
The value was 28.05% and 29.96% and 37.03% and 23.24%.

What about the “time required for 99.9% parasite reduction” value ([1]; in vitro) of the same molecule?
The value was roughly 92 h.

And the “in vitro parasite elimination half-life” value ([1]; one-phase exponential decay, 12 × EC90, referenced to DMSO control)?
Its value is roughly 9.2 h.

And the “fecal oocyst shedding, individual mice” value ([2]; 10 mg/kg QD from day 4, day p.i. 8)?
The value was 5.45 and 13 (2×) and 10.

And the “fecal oocyst shedding, individual mice” value ([2]; 10 mg/kg QD from day 4, day p.i. 14)?
Its value is 11 and 15 (2×) and 21.

And the “fecal oocyst shedding, individual mice” value ([2]; 25 mg/kg QD from day 4, day p.i. 7)?
Its value is 3 (2×) and 6 and 9.

What about the “efficacy in IFN-γ KO mouse” value ([2]; 5, 10, 25 mg per kg once daily oral, efficacy at 10 mg per kg, maximal efficacy similar to clofazimine) of the same molecule?
Its value is “dose-dependent efficacy”.

What about the “adverse effects in IFN-γ KO mice” value ([2]; mouse, in vivo) of the same molecule?
Its value is “no adverse effects”.

What about the “Ames test for mutagenic potential” value [3] of the same molecule?
The value was “negative”.

What about the compound accumulation ([4]; 80 mg per kg once daily, 7 days) of the same molecule?
Its compound accumulation is “No compound accumulation was observed”.

What about the AUC [4, 6] of the same molecule?
The AUC was 170 µg·h/mL.

What about the Cmax [4, 6] of the same molecule?
The Cmax was 11600 ng/mL.

And the AUC [4, 7]?
Its AUC is 155 µg·h/mL.

And the Cmax [4, 7]?
The Cmax was 10100 ng/mL.

What about the Tmax ([4]; male, Sprague-Dawley, serum, rat, 80 mg·kg-1 oral once daily, Day 1) of the same molecule?
Its Tmax is 8 h.

And the half-life ([4]; male, Sprague-Dawley, serum, rat, 80 mg·kg-1 oral once daily, Day 7)?
The half-life was 22.7 h.

What about the microsomal CLint [5] of the same molecule?
Its microsomal CLint is less than 1 µL/min/mg.

What about the solubility (Solubility PBS pH 7.4) of the same molecule?
The solubility was 126 µM (≈ 48.1 µg/mL).

What about the inhibition at 10 µM (CYP3A4) of the same molecule?
Its inhibition at 10 µM is 1%.

From publication PMC6597546, “Identification of a potent benzoxaborole drug candidate for treating cryptosporidiosis” (Nature Communications, 2019)
